Reference: BigSolDB 2.1

C#CC(C)(C)NC(=O)c1cc(Cl)cc(Cl)c1
solubility (mole fraction)
Conditions | 278.15 K | 283.15 K | 288.15 K | 293.15 K | 298.15 K | 303.15 K | 308.15 K | 313.15 K | 318.15 K | 323.15 K
in cyclohexane | – | 0.000135 | 0.000185 | 0.000293 | 0.000425 | 0.000544 | 0.000704 | 0.00081 | 0.00101 | 0.00124
in ethanol | 0.0071 | 0.00834 | 0.00953 | 0.011 | 0.0131 | 0.0151 | 0.0174 | 0.0205 | 0.0242 | 0.0295
in isopropanol | 0.00219 | 0.00269 | 0.00351 | 0.00526 | 0.00705 | 0.00865 | 0.0112 | 0.0137 | 0.0171 | 0.023
in methanol | 0.00654 | 0.0077 | 0.00892 | 0.0101 | 0.0124 | 0.0145 | 0.017 | 0.0201 | 0.0236 | 0.0283
in toluene | 0.00179 | 0.00238 | 0.00298 | 0.00368 | 0.00467 | 0.00593 | 0.00735 | 0.00924 | 0.0113 | 0.0124
